Source: patent US20240043427A1 (Gilead Sciences, Inc., priority 2020, published 2024)

Target: CD73 (Homo sapiens (Human), UniProt P21589)
Assay type: biochemical
Conditions: 1 mM NaH2PO4 in enzyme buffer, CD73 0.3 nM, AMP 15 uM
Experimental: Compound serial dilutions were pre-spotted into Thermo Nunc assay plate. 50 uL CD73 enzyme buffer (CD73 purchased from R&D system=0.6 nM, 25 mM Tris, pH 7.4, 5 mM MgCl2, 1 mM NaH2PO4) was added into the assay plate and incubate for 15 mins. […] After incubation for 60 mins, the supernatant (20 uL) was transferred into 384-well NUNC plate pre-filled with 60 uL Quench buffer (80% organic and 20% water+0.1% FA) with internal standard. The plate was spun down at 4500 rpm for 20 mins, then 20 uL of supernatant was transferred to another Nunc plate prefilled with 80 uL of water. The samples were analyzed using Rapid fire.

CD73, sequence (P21589 27-574): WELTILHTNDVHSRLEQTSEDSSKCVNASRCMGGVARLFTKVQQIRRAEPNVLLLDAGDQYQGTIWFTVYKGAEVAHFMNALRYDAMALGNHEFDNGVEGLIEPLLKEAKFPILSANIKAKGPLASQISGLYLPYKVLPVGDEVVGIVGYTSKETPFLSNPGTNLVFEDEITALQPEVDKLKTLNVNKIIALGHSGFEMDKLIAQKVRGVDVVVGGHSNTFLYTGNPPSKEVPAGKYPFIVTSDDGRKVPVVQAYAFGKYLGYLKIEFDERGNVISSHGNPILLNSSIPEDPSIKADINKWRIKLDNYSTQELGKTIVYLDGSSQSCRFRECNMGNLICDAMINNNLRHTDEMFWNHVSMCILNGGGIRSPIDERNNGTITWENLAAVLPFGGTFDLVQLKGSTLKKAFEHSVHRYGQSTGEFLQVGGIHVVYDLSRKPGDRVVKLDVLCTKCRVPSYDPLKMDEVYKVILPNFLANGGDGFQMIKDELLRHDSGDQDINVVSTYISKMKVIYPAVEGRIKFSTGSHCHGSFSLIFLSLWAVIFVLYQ

**Q.** Which IC50 does the source give for `O=C1N(CC(F)(F)F)c2cc([C@H]3C[C@@H]3c3cc(-c4c[nH]c(=O)[nH]c4=O)nn4ccnc34)ccc2C12CC2` (single isomer, unassigned) [Example 391] here?
**A.** 1.01 nM

**Q.** `O=c1[nH]cc(-c2cc([C@H]3C[C@@H]3c3cccc4ccncc34)c3nccn3n2)c(=O)[nH]1` (racemic) [Example 166, 5-(8-((1S,2S)-2-(isoquinolin-8-yl)cyclopropyl)imidazo[1,2-b]pyridazin-6-yl)pyrimidine-2,4(1H,3H)-dione] was tested. Which IC50 did it give?
**A.** 43 nM

**Q.** For `CC1(C)CN(C(=O)c2cccc([C@H]3C[C@@H]3c3cc(-c4c[nH]c(=O)[nH]c4=O)nn4ccnc34)c2)C1` (racemic) [Example 298, 5-(8-((1S,2S)-2-(3-(3,3-dimethylazetidine-1-carbonyl)phenyl)cyclopropyl)imidazo[1,2-b]pyridazin-6-yl)pyrimidine-2,4(1H,3H)-dione], which IC50 is on record?
**A.** 3.78 nM

**Q.** Which IC50 does the source give for `O=c1[nH]cc(-c2cc([C@H]3C[C@@H]3c3cncnc3)c3ncc(F)n3n2)c(=O)[nH]1` (racemic) [Example 179, 5-(3-fluoro-8-((1S,2S)-2-(pyrimidin-5-yl)cyclopropyl)imidazo[1,2-b]pyridazin-6-yl)pyrimidine-2,4(1H,3H)-dione] here?
**A.** 16.7 nM

**Q.** `CC1CN(C(=O)c2cccc([C@H]3C[C@@H]3c3cc(-c4c[nH]c(=O)[nH]c4=O)nn4ccnc34)c2)C1` (racemic) [Example 295, 5-(8-((1S,2S)-2-(3-(3-methylazetidine-1-carbonyl)phenyl)cyclopropyl)imidazo[1,2-b]pyridazin-6-yl)pyrimidine-2,4(1H,3H)-dione] was tested. Which IC50 did it give?
**A.** 1.92 nM

**Q.** `O=c1[nH]cc(-c2cc([C@H]3C[C@@H]3c3ccnc4ccccc34)c3nccn3n2)c(=O)[nH]1` (racemic) [Example 167, 5-(8-((1S,2S)-2-(quinolin-4-yl)cyclopropyl)imidazo[1,2-b]pyridazin-6-yl)pyrimidine-2,4(1H,3H)-dione] was tested. Which IC50 did it give?
**A.** 33 nM

**Q.** Which IC50 does the source give for `O=C(c1cccc([C@H]2C[C@@H]2c2cc(-c3c[nH]c(=O)[nH]c3=O)nn3ccnc23)c1)N1CCC(F)(F)C1` (racemic) [Example 306, 5-(8-((1S,2S)-2-(3-(3,3-difluoropyrrolidine-1-carbonyl)phenyl)cyclopropyl)imidazo[1,2-b]pyridazin-6-yl)pyrimidine-2,4(1H,3H)-dione] here?
**A.** 1.67 nM

**Q.** How did the IC50 turn out when `O=C1N(CC(F)(F)F)c2cc([C@H]3C[C@@H]3c3cc(-c4c[nH]c(=O)[nH]c4=O)nn4ccnc34)c(F)cc2C12CC2` (racemic) [Example 748, 5-(8-((1S,2S)-2-(5′-fluoro-2′-oxo-1′-(2,2,2-trifluoroethyl)spiro[cyclopropane-1,3′-indolin]-6′-yl)cyclopropyl)imidazo[1,2-b]pyridazin-6-yl)pyrimidine-2,4(1H,3H)-dione] was run?
**A.** 2.5 nM

**Q.** How did the IC50 turn out when `Cc1nc2cc([C@H]3C[C@@H]3c3cc(-c4c[nH]c(=O)[nH]c4=O)nn4ccnc34)ccc2s1` (racemic) [Example 321, 5-(8-((1S,2S)-2-(2-methylbenzo[d]thiazol-5-yl)cyclopropyl)imidazo[1,2-b]pyridazin-6-yl)pyrimidine-2,4(1H,3H)-dione] was run?
**A.** 1.12 nM

**Q.** How did the IC50 turn out when `O=c1[nH]cc(-c2cc([C@H]3C[C@@H]3c3ccc(Cl)cc3)c3ncc(F)n3n2)c(=O)[nH]1` (racemic) [Example 182, 5-(8-((1S,2S)-2-(4-chlorophenyl)cyclopropyl)-3-fluoroimidazo[1,2-b]pyridazin-6-yl)pyrimidine-2,4(1H,3H)-dione] was run?
**A.** 1.24 nM

**Q.** `O=c1[nH]cc(-c2cc([C@H]3C[C@@H]3c3ccc(OC(F)(F)F)nc3)c3nccn3n2)c(=O)[nH]1` (racemic) [Example 376, 5-(8-((1S,2S)-2-(6-(trifluoromethoxy)pyridin-3-yl)cyclopropyl)imidazo[1,2-b]pyridazin-6-yl)pyrimidine-2,4(1H,3H)-dione] was tested. Which IC50 did it give?
**A.** 8.07 nM

**Q.** `N#Cc1ccc([C@H]2C[C@@H]2c2cc(-c3c[nH]c(=O)[nH]c3=O)nn3ccnc23)c(F)c1` (racemic) [Example 407, 4-((1S,2S)-2-(6-(2,4-dioxo-1,2,3,4-tetrahydropyrimidin-5-yl)imidazo[1,2-b]pyridazin-8-yl)cyclopropyl)-3-fluorobenzonitrile] was tested. Which IC50 did it give?
**A.** 1.9 nM

**Q.** How did the IC50 turn out when `O=C(c1ccc([C@H]2C[C@@H]2c2cc(-c3c[nH]c(=O)[nH]c3=O)nn3c(F)cnc23)cc1)N1CC(F)(F)C1` [Example 313, 5-(8-((1S,2S)-2-(4-(3,3-difluoroazetidine-1-carbonyl)phenyl)cyclopropyl)-3-fluoroimidazo[1,2-b]pyridazin-6-yl)pyrimidine-2,4(1H,3H)-dione] was run?
**A.** 2.35 nM

**Q.** Which IC50 does the source give for `O=c1[nH]cc(-c2cc([C@H]3C[C@@H]3c3ccc(F)c(F)c3F)c3nccn3n2)c(=O)[nH]1` (racemic) [Example 464, 5-(8-((1S,2S)-2-(2,3,4-trifluorophenyl)cyclopropyl)imidazo[1,2-b]pyridazin-6-yl)pyrimidine-2,4(1H,3H)-dione] here?
**A.** 1.47 nM

**Q.** Which IC50 does the source give for `O=c1[nH]cc(-c2cc([C@H]3C[C@@H]3c3ccc4c(c3)OC(F)(F)O4)c3nccn3n2)c(=O)[nH]1` (racemic) [Example 360, 5-(8-((1S,2S)-2-(2,2-difluorobenzo[d][1,3]dioxol-5-yl)cyclopropyl)imidazo[1,2-b]pyridazin-6-yl)pyrimidine-2,4(1H,3H)-dione] here?
**A.** 0.92 nM

**Q.** Which IC50 does the source give for `CNC(=O)c1cccc([C@H]2C[C@@H]2c2cc(-c3c[nH]c(=O)[nH]c3=O)nn3ccnc23)c1` (racemic) [Example 286, 3-((1S,2S)-2-(6-(2,4-dioxo-1,2,3,4-tetrahydropyrimidin-5-yl)imidazo[1,2-b]pyridazin-8-yl)cyclopropyl)-N-methylbenzamide] here?
**A.** 1.19 nM

**Q.** For `O=C(c1ccc([C@H]2C[C@@H]2c2cc(-c3c[nH]c(=O)[nH]c3=O)nn3ccnc23)cc1)N1CC(F)(F)C(F)(F)C1` (racemic) [Example 303, 5-(8-((1S,2S)-2-(4-(3,3,4,4-tetrafluoropyrrolidine-1-carbonyl)phenyl)cyclopropyl)imidazo[1,2-b]pyridazin-6-yl)pyrimidine-2,4(1H,3H)-dione], which IC50 is on record?
**A.** 7.74 nM

**Q.** With `NC(=O)c1cccc([C@H]2C[C@@H]2c2cc(-c3c[nH]c(=O)[nH]c3=O)nn3ccnc23)c1` (racemic) [Example 284, 3-((1S,2S)-2-(6-(2,4-dioxo-1,2,3,4-tetrahydropyrimidin-5-yl)imidazo[1,2-b]pyridazin-8-yl)cyclopropyl)benzamide] as the compound, how does the IC50 read?
**A.** 1.07 nM

**Q.** With `O=c1[nH]cc(-c2cc([C@H]3C[C@@H]3c3ccc4cnn(CC5CC5)c4c3)c3nccn3n2)c(=O)[nH]1` (racemic) [Example 130, 5-(8-((1S,2S)-2-(1-(cyclopropylmethyl)-1H-indazol-6-yl)cyclopropyl)imidazo[1,2-b]pyridazin-6-yl)pyrimidine-2,4(1H,3H)-dione] as the compound, how does the IC50 read?
**A.** 1.01 nM

**Q.** `N#Cc1cc([C@H]2C[C@@H]2c2cc(-c3c[nH]c(=O)[nH]c3=O)nn3ccnc23)ccc1C(F)(F)F` (racemic) [Example 412, 5-((1S,2S)-2-(6-(2,4-dioxo-1,2,3,4-tetrahydropyrimidin-5-yl)imidazo[1,2-b]pyridazin-8-yl)cyclopropyl)-2-(trifluoromethyl)benzonitrile] was tested. Which IC50 did it give?
**A.** 6 nM

**Q.** With `Cn1cc([C@H]2C[C@@H]2c2cc(-c3c[nH]c(=O)[nH]c3=O)nn3ccnc23)ccc1=O` (racemic) [Example 184, 5-(8-((1S,2S)-2-(1-methyl-6-oxo-1,6-dihydropyridin-3-yl)cyclopropyl)imidazo[1,2-b]pyridazin-6-yl)pyrimidine-2,4(1H,3H)-dione] as the compound, how does the IC50 read?
**A.** 2.86 nM
